Test results reported in patent US20030232986A1, “Inhibitors of caspases” (Vertex Pharmaceuticals Incorporated, priority 1998, published 2003).
Where a SMILES comes first, the peptide text is derived from it. The star is where a group is joined. Isovaleryl = CC(C)CC(=O)*; 4Abz = Nc1ccc(C(=O)O)cc1

Key:
Caspase-1 = target: T1, Caspase-1 (Homo sapiens, UniProt P29466); assay: Caspase-1 enzyme inhibition (Ki); type: biochemical; conditions: substrate Suc-YVAD-pNA 80 μM, 37° C., pH 7.5
T1 sequence (P29466 120-297 limits assumed): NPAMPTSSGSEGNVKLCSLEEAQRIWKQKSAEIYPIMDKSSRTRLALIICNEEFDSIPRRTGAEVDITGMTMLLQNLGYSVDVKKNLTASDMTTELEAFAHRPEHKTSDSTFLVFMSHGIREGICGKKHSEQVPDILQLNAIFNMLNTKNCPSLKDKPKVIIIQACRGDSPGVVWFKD
T1 sequence (P29466 317-404 limits assumed): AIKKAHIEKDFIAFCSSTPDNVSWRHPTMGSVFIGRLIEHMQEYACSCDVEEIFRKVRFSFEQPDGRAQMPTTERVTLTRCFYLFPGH
Procedure, shortened: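 Ki obtained by fitting rate versus inhibitor concentration to the Morrison tight-binding equation for competitive inhibitors, with pNA release read at 405 nm at 37 °C. Substrate Suc-YVAD-pNA (80 μM final) added after 15 min enzyme–inhibitor preincubation in Tris pH 7.5 buffer with DTT and CHAPS.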

[1] = test system: Human Peripheral Blood Mononuclear Cells (PBMC), mature IL-1β; assay: PBMC cell assay: IL-1β assay with human peripheral blood mononuclear cells; type: cell-based; conditions: LPS-stimulated human PBMC, mature IL-1β in supernatant by ELISA
Procedure, shortened: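 Donor PBMC (suspension at 6×10^6 cells/ml) or adherent-enriched monocytes were stimulated with 5 ng/ml LPS (final) alongside 5–6 compound dilutions bracketing the ICE Ki, at 0.1% DMSO final, for 16–18 hr at 37° C, 5% CO2. Mature IL-1β in supernatants was measured by ELISA; IC50 was calculated relative to LPS-only controls.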

[2] = test system: Human whole blood, IL-1β production; assay: Whole blood assay for IL-1β production; type: cell-based; conditions: LPS-stimulated whole blood, IL-1β by ELISA
Procedure, shortened: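 LPS-stimulated (5.0 ng/ml final) human whole blood incubated with test compound in saline (or plasma/PBS-5% DMSO for hydrophobic compounds) at 30° C for 16-18 hr. Plasma IL-1β then measured by ELISA at 1:200 dilution, against no-LPS, no-inhibitor and vehicle controls.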

SMILES | Ki (Caspase-1) [µM] | IC50 [2] [µM] | IC50 [1] [µM]
C[C@H](NC(=O)c1ccc(C(N)=O)cc1)C(=O)N1CCC[C@H]1C(=O)N[C@H](C=O)CC(=O)O [Example 7u] | 0.01 to 1 | 2.5 to 7.5 | > 2
CC(C)CC(=O)Nc1ccc(C(=O)N[C@@H](C)C(=O)N2CCC[C@H]2C(=O)N[C@H](C=O)CC(=O)O)cc1 [Example 7v] ({Isovaleryl-4Abz}-Ala-Pro-Asp-aldehyde) | 0.01 to 1 | < 2.5 | > 2
Cc1cc(C(=O)N[C@@H](C)C(=O)N2CCC[C@H]2C(=O)N[C@H](C=O)CC(=O)O)cc(Cl)c1N [Example 7w] | < 0.01 | < 2.5 | 1 to 2
C[C@H](NC(=O)c1ccc(NS(C)(=O)=O)cc1)C(=O)N1CCC[C@H]1C(=O)N[C@H](C=O)CC(=O)O [Example 7x] | 0.01 to 1 | > 7.5 | > 2
C[C@H](NC(=O)c1ccc(N)c(OC(F)(F)F)c1)C(=O)N1CCC[C@H]1C(=O)N[C@H](C=O)CC(=O)O [Example 7y] | 0.01 to 1 | > 7.5 | > 2
CC(=O)Nc1c(Cl)cc(C(=O)N[C@@H](C)C(=O)N2CCC[C@H]2C(=O)N[C@H](C=O)CC(=O)O)cc1Cl [Example 7z] | 0.01 to 1 | < 2.5 | 1 to 2
COc1ccc(C(=O)N[C@H](C(=O)N2C[C@H](NC(C)=O)C[C@H]2C(=O)N[C@H](C=O)CC(=O)O)C(C)C)cc1 [Example 9a] | 0.01 to 1 | 2.5 to 7.5 | 0.5 to 1
COc1ccc(C(=O)N[C@H](C(=O)N2C[C@H](NC(=O)NC(C)C)C[C@H]2C(=O)N[C@H](C=O)CC(=O)O)C(C)C)cc1 [Example 9b] | < 0.01 | 2.5 to 7.5 | 0.5 to 1
CC(C)NC(=O)N[C@@H]1C[C@@H](C(=O)N[C@H](C=O)CC(=O)O)N(C(=O)[C@@H](NC(=O)c2nccc3ccccc23)C(C)C)C1 [Example 9c] | < 0.01 | < 2.5 | < 0.5
CC(C)[C@H](NC(=O)c1nccc2ccccc12)C(=O)N1C[C@H](NS(C)(=O)=O)C[C@H]1C(=O)N[C@H](C=O)CC(=O)O [Example 9d] | < 0.01 | < 2.5 | 0.5 to 1
COC(=O)N[C@@H]1C[C@@H](C(=O)N[C@H](C=O)CC(=O)O)N(C(=O)[C@@H](NC(=O)c2ccc(OC)cc2)C(C)C)C1 [Example 9e] | < 0.01 | 2.5 to 7.5 | 1 to 2
COC(=O)N[C@@H]1C[C@@H](C(=O)N[C@H](C=O)CC(=O)O)N(C(=O)[C@@H](NC(=O)c2nccc3ccccc23)C(C)C)C1 [Example 9f] | < 0.01 | < 2.5 | 0.5 to 1
CC(=O)N[C@@H]1C[C@@H](C(=O)N[C@H](C=O)CC(=O)O)N(C(=O)[C@@H](NC(=O)c2nccc3ccccc23)C(C)C)C1 [Example 9g] | < 0.01 | 2.5 to 7.5 | 1 to 2
Cc1cc(C(=O)N[C@H](C(=O)N2CCNCC2C(=O)N[C@H](C=O)CC(=O)O)C(C)C)cc(C)c1O (stereo partly drawn) [Example 15a] | < 0.01 | 2.5 to 7.5 | > 2
CC(C)[C@H](NC(=O)c1nccc2ccccc12)C(=O)N1CCNCC1C(=O)N[C@H](C=O)CC(=O)O (stereo partly drawn) [Example 15b] | < 0.01 | 2.5 to 7.5 | 1 to 2
COc1ccc(C(=O)N[C@H](C(=O)N2CCNC[C@H]2C(=O)N[C@H](C=O)CC(=O)O)C(C)C)cc1 [Example 15c] | < 0.01 | < 2.5 | 0.5 to 1

Continued, in another order:

Ki (Caspase-1) [µM] | IC50 [2] [µM] | SMILES | IC50 [1] [µM]
< 0.01 | < 2.5 | C[C@H](NC(=O)c1ccc(N)c(Cl)c1)C(=O)N1CCNC[C@H]1C(=O)N[C@H](C=O)CC(=O)O [Example 16b] | 1 to 2
0.01 to 1 | < 2.5 | COCC(=O)N1CCN(C(=O)[C@H](C)NC(=O)c2nccc3ccccc23)[C@H](C(=O)N[C@H](C=O)CC(=O)O)C1 [Example 18a] | 0.5 to 1
< 0.01 | < 2.5 | CC(C)S(=O)(=O)N1CCN(C(=O)[C@H](C)NC(=O)c2nccc3ccccc23)[C@H](C(=O)N[C@H](C=O)CC(=O)O)C1 [Example 18b] | 0.5 to 1
0.01 to 1 | < 2.5 | C[C@H](NC(=O)c1nccc2ccccc12)C(=O)N1CCN(C(N)=O)C[C@H]1C(=O)N[C@H](C=O)CC(=O)O [Example 18c] | 0.5 to 1
0.01 to 1 | < 2.5 | CC(=O)N1CCN(C(=O)[C@H](C)NC(=O)c2nccc3ccccc23)[C@H](C(=O)N[C@H](C=O)CC(=O)O)C1 [Example 18d] | 0.5 to 1
< 0.01 | < 2.5 | CC(C)NC(=O)N1CCN(C(=O)[C@H](C)NC(=O)c2nccc3ccccc23)[C@H](C(=O)N[C@H](C=O)CC(=O)O)C1 [Example 18e] | 1 to 2
< 0.01 | < 2.5 | CC(C)(C)[C@H](NC(=O)c1nccc2ccccc12)C(=O)N1CCC[C@H]1C(=O)N[C@H](C=O)CC(=O)O [Example 20a] | 0.5 to 1
< 0.01 | > 7.5 | CC(C)(C)[C@H](NC(=O)c1cccc2ccccc12)C(=O)N1CCC[C@H]1C(=O)N[C@H](C=O)CC(=O)O [Example 20b] | 0.5 to 1
< 0.01 | 2.5 to 7.5 | CCC(C)[C@H](NC(=O)c1nccc2ccccc12)C(=O)N1CCC[C@H]1C(=O)N[C@H](C=O)CC(=O)O (stereo partly drawn) [Example 20c] | 1 to 2
0.01 to 1 | 2.5 to 7.5 | C[C@@H](O)[C@H](NC(=O)c1nccc2ccccc12)C(=O)N1CCC[C@H]1C(=O)N[C@H](C=O)CC(=O)O [Example 20d] | > 2
< 0.01 | 2.5 to 7.5 | CC[C@H](NC(=O)c1nccc2ccccc12)C(=O)N1CCC[C@H]1C(=O)N[C@H](C=O)CC(=O)O [Example 20e] | 1 to 2
< 0.01 | < 2.5 | CCC(C)[C@H](NC(=O)c1cc(Cl)c(O)c(Cl)c1)C(=O)N1CCC[C@H]1C(=O)N[C@H](C=O)CC(=O)O (stereo partly drawn) [Example 20k] | < 0.5
< 0.01 | < 2.5 | C[C@@H](O)[C@H](NC(=O)c1cc(Cl)c(O)c(Cl)c1)C(=O)N1CCC[C@H]1C(=O)N[C@H](C=O)CC(=O)O [Example 20l] | 0.5 to 1
< 0.01 | < 2.5 | O=C[C@H](CC(=O)O)NC(=O)[C@@H]1CCCN1C(=O)[C@H](Cc1cccnc1)NC(=O)c1cc(Cl)c(O)c(Cl)c1 [Example 20n] | 0.5 to 1
< 0.01 | < 2.5 | CSC[C@H](NC(=O)c1cc(Cl)c(O)c(Cl)c1)C(=O)N1CCC[C@H]1C(=O)N[C@H](C=O)CC(=O)O [Example 20o] | < 0.5
< 0.01 | < 2.5 | CS(=O)(=O)CC[C@H](NC(=O)c1cc(Cl)c(O)c(Cl)c1)C(=O)N1CCC[C@H]1C(=O)N[C@H](C=O)CC(=O)O [Example 20p, 3-({1-[2-(3,5-dichloro-4-hydroxy-benizoylamino)-4-methanesulfonyl-butyryl]-pyrrolidine-2-carbonyl}-amino)-4-oxo-butyric acid] | < 0.5
0.01 to 1 | > 7.5 | CCC(C)[C@H](NC(=O)c1ccc(N)c(Cl)c1)C(=O)N1CCC[C@H]1C(=O)N[C@H](C=O)CC(=O)O (stereo partly drawn) [Example 20q] | 0.5 to 1
0.01 to 1 | 2.5 to 7.5 | CS(=O)(=O)C[C@H](NC(=O)c1nccc2ccccc12)C(=O)N1CCC[C@H]1C(=O)N[C@H](C=O)CC(=O)O [Example 20r, 3-[(1-{2-[(isoquinoline-1-carbonyl)-amino]-3-methanesulfonyl-propionyl}-pyrrolidine-2-carbonyl)-amino]-4-oxo-butyric acid] | 0.5 to 1
< 0.01 | < 2.5 | CS(=O)(=O)CC(NC(=O)c1cc(Cl)c(O)c(Cl)c1)C(=O)N1CCCC1C(=O)NC(C=O)CC(=O)O (stereo not drawn) [Example 20s, 3-({1-[2-(3,5-dichloro-4-hydroxy-benzoylamino)-3-methanesulfonyl-propionyl]-pyrrolidine-2-carbonyl}-amino)-4-oxo-butyric acid] | 1 to 2
0.01 to 1 | < 2.5 | CS(=O)(=O)C[C@H](NC(=O)c1ccc(N)c(Cl)c1)C(=O)N1CCC[C@H]1C(=O)N[C@H](C=O)CC(=O)O [Example 20t] | 0.5 to 1
< 0.01 | < 2.5 | CC(NC(=O)c1ccc(N)c(Cl)c1)C(=O)N1N=CC(C)C1C(=O)NC(C=O)CC(=O)O (stereo not drawn) [Example 23g, 3-({2-[2-(4-Amino-3-chloro-benzoylamino)-propionyl]-4-methyl-3,4-dihydro-2H-pyrazole-3-carbonyl}-amino)-4-oxo-butyric acid] | 1 to 2
